In the NIST ThermoML archive (doi:10.1016/j.jct.2007.07.005):

Test: xn = mol fraction of the nth substance listed
Details: Fluid (supercritical or subcritical phases), vibrating tube

CCCCCO [pentan-1-ol] + O=C=O
Details | mass density [kg/m3]
313.11 K, 24020 kPa, x2 = 0.0816 | 821.33
313.11 K, 25023 kPa, x2 = 0.0816 | 822.02
313.12 K, 10002 kPa, x2 = 0.8573 | 809.77
313.12 K, 10012 kPa, x2 = 0.7274 | 838.41
313.12 K, 11010 kPa, x2 = 0.7274 | 841.91
313.12 K, 11023 kPa, x2 = 0.8573 | 818.98
313.12 K, 11998 kPa, x2 = 0.7274 | 845.15
313.12 K, 12025 kPa, x2 = 0.8573 | 826.77
313.12 K, 13005 kPa, x2 = 0.8573 | 833.59
313.12 K, 13032 kPa, x2 = 0.7274 | 848.39
313.12 K, 14012 kPa, x2 = 0.8573 | 839.94
313.12 K, 14027 kPa, x2 = 0.7274 | 851.37
313.12 K, 15004 kPa, x2 = 0.7274 | 854.2
313.12 K, 15004 kPa, x2 = 0.8573 | 845.66
313.12 K, 15995 kPa, x2 = 0.8573 | 851
313.12 K, 16022 kPa, x2 = 0.7274 | 857
313.12 K, 17007 kPa, x2 = 0.8573 | 856.08
313.12 K, 17019 kPa, x2 = 0.7274 | 859.65
313.12 K, 18013 kPa, x2 = 0.8573 | 860.84
313.12 K, 18018 kPa, x2 = 0.7274 | 862.21
313.12 K, 19038 kPa, x2 = 0.8573 | 865.44
313.12 K, 19055 kPa, x2 = 0.7274 | 864.78
313.12 K, 19966 kPa, x2 = 0.7274 | 866.98
313.12 K, 20008 kPa, x2 = 0.8573 | 869.59
313.12 K, 21008 kPa, x2 = 0.8573 | 873.67
313.12 K, 21014 kPa, x2 = 0.7274 | 869.44
313.12 K, 22009 kPa, x2 = 0.8573 | 877.54
313.12 K, 22029 kPa, x2 = 0.7274 | 871.77
313.12 K, 23015 kPa, x2 = 0.8573 | 881.34
313.12 K, 23059 kPa, x2 = 0.7274 | 874.05
313.12 K, 23995 kPa, x2 = 0.8573 | 884.88
313.14 K, 5019 kPa, x2 = 0.1347 | 808.85
313.14 K, 6010 kPa, x2 = 0.1347 | 809.58
313.14 K, 7003 kPa, x2 = 0.1347 | 810.4
313.14 K, 8042 kPa, x2 = 0.1347 | 811.24
313.14 K, 9023 kPa, x2 = 0.1347 | 812.05
313.14 K, 10012 kPa, x2 = 0.1347 | 812.85
313.14 K, 11019 kPa, x2 = 0.1347 | 813.62
313.14 K, 12025 kPa, x2 = 0.1347 | 814.42
313.14 K, 13017 kPa, x2 = 0.1347 | 815.18
313.14 K, 14011 kPa, x2 = 0.1347 | 815.96
313.14 K, 15011 kPa, x2 = 0.1347 | 816.73
313.14 K, 16014 kPa, x2 = 0.1347 | 817.47
313.14 K, 17041 kPa, x2 = 0.1347 | 818.22
313.14 K, 18022 kPa, x2 = 0.1347 | 818.95
313.14 K, 19022 kPa, x2 = 0.1347 | 819.67
313.14 K, 20012 kPa, x2 = 0.1347 | 820.39
313.14 K, 21027 kPa, x2 = 0.1347 | 821.12
313.14 K, 22024 kPa, x2 = 0.1347 | 821.83
313.14 K, 23011 kPa, x2 = 0.1347 | 822.55
313.14 K, 24032 kPa, x2 = 0.1347 | 823.28
313.14 K, 25004 kPa, x2 = 0.1347 | 824
313.17 K, 8123 kPa, x2 = 0.6054 | 838.39
313.17 K, 9084 kPa, x2 = 0.6054 | 840.4
313.17 K, 10125 kPa, x2 = 0.6054 | 842.5
313.17 K, 11050 kPa, x2 = 0.6054 | 844.32
313.17 K, 12045 kPa, x2 = 0.6054 | 846.23
313.17 K, 13094 kPa, x2 = 0.6054 | 848.18
313.17 K, 14054 kPa, x2 = 0.6054 | 849.93
313.17 K, 15019 kPa, x2 = 0.6054 | 851.65
313.17 K, 16045 kPa, x2 = 0.6054 | 853.41
313.17 K, 17046 kPa, x2 = 0.6054 | 855.12
313.17 K, 18027 kPa, x2 = 0.6054 | 856.75
313.17 K, 19070 kPa, x2 = 0.6054 | 858.44
313.17 K, 20036 kPa, x2 = 0.6054 | 859.99
313.17 K, 21030 kPa, x2 = 0.6054 | 861.55
313.17 K, 22042 kPa, x2 = 0.6054 | 863.12
313.17 K, 23036 kPa, x2 = 0.6054 | 864.64
313.17 K, 24020 kPa, x2 = 0.6054 | 866.12
313.17 K, 25040 kPa, x2 = 0.6054 | 867.64
322.89 K, 520 kPa, x2 = 0 | 792.06
322.89 K, 1010 kPa, x2 = 0 | 792.47
322.89 K, 2005 kPa, x2 = 0 | 793.27
322.89 K, 3007 kPa, x2 = 0 | 794.07
322.89 K, 4005 kPa, x2 = 0 | 794.86
322.89 K, 5018 kPa, x2 = 0 | 795.63
322.89 K, 6001 kPa, x2 = 0 | 796.42
322.89 K, 7016 kPa, x2 = 0 | 797.2
322.89 K, 8020 kPa, x2 = 0 | 797.97
322.89 K, 8997 kPa, x2 = 0 | 798.71
322.89 K, 10001 kPa, x2 = 0 | 799.47
322.89 K, 11005 kPa, x2 = 0 | 800.21
322.89 K, 11996 kPa, x2 = 0 | 800.95
322.89 K, 13002 kPa, x2 = 0 | 801.68
322.89 K, 14013 kPa, x2 = 0 | 802.4
322.89 K, 15005 kPa, x2 = 0 | 803.11
322.89 K, 16014 kPa, x2 = 0 | 803.82
322.89 K, 17001 kPa, x2 = 0 | 804.51
322.89 K, 18016 kPa, x2 = 0 | 805.21
322.89 K, 19012 kPa, x2 = 0 | 805.89
322.89 K, 19992 kPa, x2 = 0 | 806.56
322.89 K, 21036 kPa, x2 = 0 | 807.26
322.89 K, 22003 kPa, x2 = 0 | 807.92
322.89 K, 23024 kPa, x2 = 0 | 808.61
322.89 K, 23994 kPa, x2 = 0 | 809.26
322.89 K, 25023 kPa, x2 = 0 | 810
323.05 K, 3011 kPa, x2 = 0.0816 | 797.79
323.05 K, 4020 kPa, x2 = 0.0816 | 798.67
323.05 K, 5030 kPa, x2 = 0.0816 | 799.53
323.05 K, 6018 kPa, x2 = 0.0816 | 800.37
323.05 K, 7017 kPa, x2 = 0.3624 | 815.3
323.05 K, 7023 kPa, x2 = 0.0816 | 801.2
323.05 K, 8013 kPa, x2 = 0.0816 | 802.02
323.05 K, 8029 kPa, x2 = 0.4651 | 820.04
323.05 K, 8051 kPa, x2 = 0.3624 | 816.51
323.05 K, 9009 kPa, x2 = 0.4651 | 821.63
323.05 K, 9023 kPa, x2 = 0.0816 | 802.84
323.05 K, 9034 kPa, x2 = 0.3624 | 817.64
323.05 K, 9991 kPa, x2 = 0.4651 | 823.23
323.05 K, 10026 kPa, x2 = 0.0816 | 803.67
323.05 K, 10029 kPa, x2 = 0.3624 | 818.77
323.05 K, 11006 kPa, x2 = 0.0816 | 804.46
323.05 K, 11012 kPa, x2 = 0.4651 | 824.81
323.05 K, 11015 kPa, x2 = 0.8067 | 800.23
323.05 K, 11022 kPa, x2 = 0.3624 | 819.83
323.05 K, 11033 kPa, x2 = 0.9757 | 625.72
323.05 K, 11992 kPa, x2 = 0.0816 | 805.23
323.05 K, 11993 kPa, x2 = 0.4651 | 826.28
323.05 K, 11995 kPa, x2 = 0.9757 | 668.32
323.05 K, 12003 kPa, x2 = 0.3624 | 820.86
323.05 K, 12032 kPa, x2 = 0.8067 | 808.05
323.05 K, 13015 kPa, x2 = 0.3624 | 821.9
323.05 K, 13017 kPa, x2 = 0.9757 | 699.41
323.05 K, 13024 kPa, x2 = 0.4651 | 827.83
